Entries after “also recorded” stand apart in the source; their conditions may differ.
Legend:
[1] = system: TNFα; assay: LPS Mouse Assay, serum TNFα; assay type: in vivo, Balb C ByJ mice; settings: mice, i.p. or oral dosing 30 minutes before 1 mg/kg LPS i.p.; serum 2 hours after LPS, ELISA
Method: (§1) 7 week old Balb C ByJ mice (24-28 g) were administered, either by i.p. (5 ml/kg) or oral (10 ml/kg) administration, with vehicle or test article. 30 minutes later these animals were challenged with an intraperitoneal injection of 1 mg/kg LPS. 2 hours after LPS challenge blood samples were collected under light isoflurane anaesthesia into normal tubes by retro-orbital puncture. Samples were allowed to clot at room temperature and then spun at 6000 g for 3 min at 4° C. Serum was stored at −20° C. until use. Serum TNFα and IL-10 levels were analysed in duplicate by ELISA technique.

[2] = system: IL-10; assay: LPS Mouse Assay, serum IL-10; assay type: in vivo, Balb C ByJ mice; settings: mice, i.p. or oral dosing 30 minutes before 1 mg/kg LPS i.p.; serum 2 hours after LPS, ELISA
Method: as §1

[3] = system: LPS-induced model of cytokine release; assay: LPS Mouse Assay, overall cytokine modulation; assay type: in vivo, Balb C ByJ mice; settings: LPS-challenged mice, serum TNFα and IL-10
Method: as §1

[4] = system: intraplantar carrageenan induced paw oedema; assay: Carrageenan Paw Assay; assay type: in vivo, male Wistar rats; settings: rats, oral gavage half an hour before carrageenan; paw volume AUC 1-5 hours
Method: Fasted (18 hour) male Wistar rats (105-130 g) were weighed and a basal mercury plethysmometer reading was taken of the right hind paw by submerging the paw in the mercury up to the tibiotarsal joint. Subsequently, vehicles, reference items and test articles were administered by oral gavage (10 ml/kg). Half an hour after treatment, 0.1 ml of 2% carrageenan in 0.9% saline was injected into the subplanatar area of the right hind paw. The right paw was measured again with the plethysmometer at 1, 2, 3, 4 and 5 hours after carrageenan administration. Paw volume effects was expressed as the area under the curve for paw volume over time. Activity (inhibition of paw volume) was expressed as the % antiinflammatory activity versus the vehicle control.

[5] = system: adjuvant arthritis; assay: Rat Adjuvant Assay; assay type: in vivo, Male Wistar rats; settings: rats, oral once a day from day 11; for paw oedema / paw inflammation: doses 3, 10 and 30 mg/kg
Method: Male Wistar rats (180 to 200 g) were inoculated by subplantar injection of Freund's adjuvant (suspension of Mycobacterium butyricum in mineral oil) into the right paw at day 0. Sham inoculations were injected in the same way with 0.9% saline in matched Male Wistar rats. On day 2, animals were weighed. On days 3, 4, 7, 9 and 11, animals were weighed and both their right and left hind paws were measured by plethsymometry by submerging the paw up to the tibiotarsal joint. On day 11, rats with left hind paw volumes increased by 20% were selected for continuance in the study. On the same day, continuance rats were administered test article orally (10 ml/kg in distilled water) and from then on once a day until the completion of the study. Left and right hind paw volumes were measured on days 11, 14, 15, 16, 18 and 21.

[6] = system: dextran sulphate induced colonic inflammation; assay: DSS Induced Colitis; assay type: in vivo, BDF1 male mice; settings: mice, 3% dextran sulphate
Method: 8-10 week old BDF1 male mice (˜30 g) were housed in normal conditions. At the start of the study normal water was exchanged for a 3% dextran sulphate solution to induce colonic inflammation. Concurrently actarit and the positive control budesonide were administered rectally twice a day for 7 days. On day 8 the animal were sacrificed and the large intestine was removed. The lower two thirds were assessed for histological severity (scoring system; 1 mild to 4 severe). Mice were assessed for cumulative rectal bleeding scores, diarrheal scores and cumulative hemoccult measurements.

[7] = system: SJL mouse EAE model; assay: Experimental Autoimmune Encephalitis; assay type: in vivo; settings: SJL mice, orally 10 mg/kg once a day from the first day
Method: Experimental Autoimmune Encephalitis
Acclimatised SJL mice were sensitised by a subcutaneous injection proteolipid protein (PLP) in Freund's complete adjuvant (CFA) acting as an encephalitogenic inoculum. Innoculum was administered subcutaneously at a concentration of 125 μg PLP/300 μg CFA in a volume of 200 μl. 48 hours later, an intraperitoneal injection of pertussis toxin (PTX) was administered at a dose of 20 μg/kg, to increase blood-brain barrier permeability.
Compound (6) was administered from the first day of the experiment and once a day until the end, orally at a dose of 10 mg/kg. Copaxone was administered intraperitoneally at a dose of 25 mg/kg. Throughout the experiment, careful clinical examinations and body weights were taken to observe the well being of the animal.

Compound	effect on TNF alpha secretion induced by LPS [1]	effect on IL-10 secretion [2]	cytokine modulatory activity [3]	anti-inflammatory effect against carrageenan induced paw oedema [4]	protective effects against adjuvant arthritis [5]	paw oedema / paw inflammation [5]	comparative effectiveness of (6) against (5) in DSS colitis [6]	effect on histological scores induced by oral dextran sulphate ([6]; lower dose)	effect on histological scores induced by oral dextran sulphate ([6]; top dose)	effect on second relapse of EAE [7]
CC(NC(C)(C)C)C(=O)c1cccc(Cl)c1 (stereo not shown) [Compound 3, 2-tert-Butylamino-1-(3-chlorophenyl)propan-1-one, reference compound]	small effect	not present	very weak cytokine modulatory activity	–	–	–	–	–	–	–
C[C@@H](NC(C)(C)C)[C@H](O)c1cccc(Cl)c1 (racemic) [Compound 7, (+/−)-(threo)-2-tert-Butylamino-1-(3-chlorophenyl)propan-1-ol]	inhibiting TNF alpha at all doses administrated; also recorded: small inhibitory effect on TNF alpha at the highest dose	–	–	–	–	–	–	–	–	–
(+/−)-(erythro)-2-tert-Butylamino-1-(3-chlorophenyl)propan-1-ol [Compound 8]	–	–	cytokine modulatory effects	–	–	–	–	–	–	–
(+)-(erythro)-2-tert-Butylamino-1-(3-chlorophenyl)propan-1-ol [Compound 6]	inhibited	potentiated II-10 secretion	good cytokine modulatory profiles	dose-dependant anti-inflammatory effect	protective effects	inhibited paw inflammation at all doses	marginally more effective	large ameliorating effect	marked effect	completely ameliorated the second relapse
(−)-(erythro)-2-tert-Butylamino-1-(3-chlorophenyl)propan-1-ol [Compound 5]	inhibited TNFα production	no effect on IL-10 levels	good cytokine modulatory profiles	dose-dependant anti-inflammatory effect	protective effects	reduced paw oedema at the top two doses	–	–	marked effect	–
